Each block holds one compound with its values, some of them ahead of it. Peptide text beside a SMILES is read from it. * marks the point of attachment. Cbz = O=C(OCc1ccccc1)*
Key:
HEI-193 cells [1] = assay: Western blotting of marker proteins in HEI-193 cells; assay type: cell-based, human; conditions: HEI-193 cells pretreated 6 h with leptomycin B 2 ng/ml or MG132 5 μM, then 10 μM compounds 24 h (FIGS. 14F, 14G)
Protocol: (§1) Cells were harvested and lysed using RIPA buffer [50 mM Tris-Cl, pH 7.5, 150 mM NaCl, 1% NP-40, 0.1% SDS, and 10% sodium deoxycholate] to examine cellular signaling. Protein concentrations in samples were measured using Bio-Rad (Hercules, CA, USA) protein assay kits and BSA standards. The samples (20 μg protein per lane) were separated by sodium dodecyl sulfate-polyacrylamide gel electrophoresis (SDS-PAGE), transferred to Immobilon-P^SQ transfer membranes (Millipore Corp., MA, USA), which were then cultured with 3% skim milk-containing TBS-T buffer (Tris-HCl-based buffer containing 20 mM Tris pH 7.6, 150 mM NaCl, and 0.05% Tween 20) for 1 hour at room temperature and then reacted with primary antibody in TBS-T overnight at 4° C. The membranes were then washed and reacted with secondary horseradish peroxidase (HRP)-conjugated antibodies [goat anti-mouse, goat anti-rabbit, and mouse anti-goat antibodies (Pierce, Thermo Fisher Scientific, Inc., Rockford, IL, USA)] in TBS-T at room temperature for 2 hours. The blots were detected using an HRP-conjugated secondary antibody using ECL kit (Intron, Seoul, Korea).

RKIP = RKIP expression by Western blotting in HEI-193 cells; assay type: cell-based, human; conditions: compounds 10 μM, 24 h (FIG. 1A) or 72 h (FIG. 2), Western blot
Protocol: as §1
Because RKIP degradation in NF2 cells is clearly known (Mol Cancer Ther 17, 2271-2284, 2018), after first treating 260 novel synthetic compounds, RKIP expression was measured in HEI-193, a human NF2 cell line.

HEI-193 cells [2] = assay: MTT cell viability assay in HEI-193 cells; assay type: cell-based, human; conditions: 10 μM, 48 h
Protocol: (§2) To measure cell viability, MTT (3-(4,5-dimethylthiazol-2-yl)-2,5-diphenyltetrazolium bromide) assay was used. In other words, the cells were seeded in 96-well plates and treated with the indicated chemicals for a predetermined time. After removing the medium, 200 μl of MTT solution (0.5 mg/ml) dissolved in PBS was added to each well. Plates were then cultured at 37° C. for 4 hours, the MTT solution was removed, the precipitated substances were dissolved using a solution (DMSO:ethanol=1:1), and an amount of formazan dye produced was quantified by measuring the absorbance at 560 nm using an ELISA microplate reader (Thermo Fisher Scientific, MA, USA).

normal fibroblasts = assay: MTT cell viability assay in normal fibroblasts; assay type: cell-based, human; conditions: 10 μM, 48 h (FIG. 3)
Protocol: as §2

[3] = target: T1, interaction between TβR1 and RKIP (Homo sapiens, UniProt P30086+P36897); assay: GST-pull down assay of TβR1-RKIP interaction; assay type: binding; conditions: GST-RKIP beads with TβR1-transfected HEK293 lysates, 5 and 10 μM, 2 h (FIG. 5B)
T1 construct: host or cells: HEK293 (TβR1 lysate)
Protocol: For protein-protein interaction analysis, glutathione S-transferase (GST)-pull down assay was performed. For GST-pull down, agarose-bead-conjugated GST-RKIP recombinant protein was reacted with FLAG-tagged TβR1-transfected HEK 293 cell lysates in PBS buffer at 4° C. for 1 hour. Immunoprecipitation (IP) assay was performed by reacting with FLAG-tagged TβR1- or HA-tagged RKIP-transfected HEI-193 cell lysates in PBS buffer. Whole lysates were reacted with appropriate primary antibodies at 4° C. for 2 hours and with agarose-bead-conjugated protein A/G (Invitrogen, Carlsbad, CA, USA) for 2 hours. After centrifugation, the precipitates were washed twice with RIPA buffer and subjected to SDS-PAGE and western blotting analysis.

mouse schwannoma cells [4] = assay: MTT cell viability assay in mouse schwannoma cells; assay type: cell-based; conditions: mouse schwannoma (NF2 mouse) cells, 10 μM, 48 h
Protocol: as §2

TGF-β signaling = assay: Smad2/3 phosphorylation after TGF-β1 in HEI-193 cells; assay type: cell-based, human; conditions: 10 μM, TGF-β1 2 ng/ml added after 12 h for 12 h (FIG. 5D)
Protocol: as §1

HEI-193 cells [5] = assay: Tumorsphere formation assay, HEI-193 cells; assay type: cell-based, human; conditions: HEI-193 cells, 10 μM, DMEM/F12 medium
Protocol: (§3) For tumorsphere formation assay, Hei-193 or mouse schwannoma cells (3×10^6 cells/plate) were cultured in DMEM/F12 medium (supplemented with 2% B27 and 40 ng/ml bFGF) and added with the indicated chemicals on non-coated plates for indicated days.

mouse schwannoma cells [6] = assay: Tumorsphere formation assay, mouse schwannoma cells; assay type: cell-based; conditions: 10 μM, DMEM/F12 medium
Protocol: as §3

SOX2 = SOX2 localization by IF and cell fractionation in HEI-193 cells; assay type: cell-based, human; conditions: 2 μM, 24 h, IF and cell fractionation (FIGS. 15C, 15D)
Protocol: Cells were seeded on cover glass, washed with PBS, fixed with 4% paraformaldehyde (PFA) for 30 minutes at room temperature, and then permeabilized with 0.2% Triton X-100 at room temperature for 5 minutes. After treatment with blocking buffer [3% goat serum diluted in PBS] for 1 hour, cells were reacted with the specified antibody in the blocking buffer overnight at 4° C. Finally, the cells were reacted with secondary antibodies conjugated with FITC or rhodamine at 4° C. for 7 hours. The nuclei were stained with DAPI at room temperature for 10 minutes. After the cells were washed 3 times with PBS, the cover glass was mounted with a mounting solution (H-5501, Vector Laboratories, Cambridgeshire, UK) and immunofluorescence signals were detected using a fluorescence microscopy (Zeiss, Jena, Germany).

schwannoma = conditions: Mol Cancer Ther 17, 2271-2284, 2018; cited from earlier work

T1 sequence (P30086 whole entry): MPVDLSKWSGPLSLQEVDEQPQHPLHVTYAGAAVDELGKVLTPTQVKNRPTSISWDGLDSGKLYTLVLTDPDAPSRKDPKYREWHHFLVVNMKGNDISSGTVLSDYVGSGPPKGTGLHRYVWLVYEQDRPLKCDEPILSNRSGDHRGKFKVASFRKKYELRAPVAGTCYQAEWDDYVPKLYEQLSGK
T1 sequence (P36897 34-503): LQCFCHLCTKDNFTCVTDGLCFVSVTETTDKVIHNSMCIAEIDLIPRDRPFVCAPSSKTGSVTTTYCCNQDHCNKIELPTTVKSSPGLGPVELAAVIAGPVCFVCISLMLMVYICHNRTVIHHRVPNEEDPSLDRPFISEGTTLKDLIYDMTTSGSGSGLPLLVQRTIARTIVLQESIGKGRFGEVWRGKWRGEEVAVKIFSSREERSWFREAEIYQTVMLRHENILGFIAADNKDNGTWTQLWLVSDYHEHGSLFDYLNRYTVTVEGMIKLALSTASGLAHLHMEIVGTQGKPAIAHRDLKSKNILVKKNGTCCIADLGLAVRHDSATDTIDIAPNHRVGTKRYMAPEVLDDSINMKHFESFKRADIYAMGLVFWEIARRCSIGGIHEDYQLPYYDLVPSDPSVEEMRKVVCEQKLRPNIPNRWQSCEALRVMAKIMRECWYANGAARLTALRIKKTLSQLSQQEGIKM

SMILES: CC(C)C[C@@H](C=O)NC(=O)[C@H](CC(C)C)NC(=O)[C@H](CC(C)C)NC(=O)OCc1ccccc1 [MG312, reference compound] (Cbz-Leu-Leu-Leu-aldehyde)
PRG-N-01/TEW7197-induced reduction in SOX2 (HEI-193 cells [1]): blocked

interaction between TβR1 and RKIP [3]: inhibitory effect
SMILES: CCN(CC)CCOc1ccc(-c2nnn(Cc3ccc(OCc4ccccc4)cc3)c2NC(=O)OC(C)(C)C)cc1 [NF-08001]
RKIP expression (RKIP): induction of RKIP | cell viability (MTT) (HEI-193 cells [2]): anti-proliferating effect | cytotoxicity in normal cells (MTT) (normal fibroblasts): exhibited normal cytotoxicity

SMILES: Cc1cccc(-c2[nH]c(CNc3ccccc3F)nc2-c2ccc3ncnn3c2)n1 [TEW7197, N-((4-([1,2,4]triazolo[1,5-a]pyridin-6-yl)-5-(6-methylpyridin-2-yl)-1H-imidazol-2-yl)methyl)-2-fluoroaniline, reference compound]
cell viability (MTT) (HEI-193 cells [2]): suppressed cell viability | cell viability (MTT) (mouse schwannoma cells [4]): suppressed cell viability | Smad2/3 phosphorylation in response to TGF-β (TGF-β signaling): TGF-β signal inhibition | tumorsphere formation (HEI-193 cells [5]): weak inhibitory effect | tumorsphere formation (mouse schwannoma cells [6]): weak inhibitory effect | localization of nuclear SOX2 (SOX2): moved to the cytosol | schwannoma in a mouse model with NF2 syndrome (schwannoma): inhibited schwannoma

SMILES: CCC(=C/[C@H](C)C/C=C/C(C)=C/[C@@H](C)C(=O)[C@@H](C)[C@H](O)[C@@H](C)C/C(C)=C/C(=O)O)/C=C/[C@@H]1OC(=O)C=C[C@@H]1C [leptomycin B, reference compound]
PRG-N-01/TEW7197-induced reduction in SOX2 (HEI-193 cells [1]): blocked

From patent publication US20240092741A1, “COMPOSITION FOR PREVENTION OR TREATMENT OF NEUROFIBROMATOSIS TYPE 2 SYNDROME” (PRG S&TECH INC., priority 2021, published 2024)
